Reference: ChEMBL document CHEMBL5608246, “Membrane-Targeting Amphiphilic Honokiol Derivatives Containing an Oxazole Moiety as Potential Antibacterials against Methicillin-Resistant Staphylococcus aureus” (J Med Chem, 2024)
The source made the active and inactive calls. No cut-off for these calls is given here.

Tests used:
[1] = Toxicity in Kunming mouse skin abscess model infected with methicillin resistant Staphylococcus aureus assessed as heart damage at 5 to 10 mg/kg, sc measured after 2 hrs by H and E staining based assay; assay type: organism-based; conditions: in vivo, dose 5-10 mg/kg
[2] = Toxicity in Kunming mouse assessed as change in platelet count at 20 mg/kg, sc measured after 24 hrs; assay type: organism-based; conditions: in vivo
Staphylococcus aureus [3] = assay: Antibacterial activity against methicillin resistant Staphylococcus aureus M21 incubated for 16 to 18 hrs by broth dilution method; assay type: functional; conditions: time 16-18 hrs
Cell membrane [4] = assay: Induction of membrane disruption in methicillin resistant Staphylococcus aureus 20 assessed as DNA leakage incubated for 4 hrs by microspectrophotometer analysis; assay type: cell membranes; conditions: dose 2-16 µg/ml
L02 = assay: Cytotoxicity against human L02 cells assessed as reduction in cell viability incubated for 24 hrs by CCK8 assay; assay type: toxicity, cell-based; conditions: l02, 24 h
[5] = Toxicity in Kunming mouse assessed as change in albumin level at 20 mg/kg, sc measured after 24 hrs; assay type: organism-based; conditions: in vivo
[6] = Toxicity in Kunming mouse assessed as change in mean corpuscular volume at 20 mg/kg, sc measured after 24 hrs; assay type: organism-based; conditions: in vivo
[7] = Toxicity in Kunming mouse assessed as skin swelling at 40 to 80 mg/kg, sc measured after 24 hrs; assay type: organism-based; conditions: in vivo, dose 40-80 mg/kg
Cell membrane [8] = assay: Induction of membrane depolarization in methicillin resistant Staphylococcus aureus 20 assessed as increase in fluorescence intensity measured at 2 mins interval over 20 mins by DiSC3(5) staining based assay; conditions: dose 16-64 µg/ml
Staphylococcus aureus [9] = assay: Upregulation of mspA gene expression in methicillin resistant Staphylococcus aureus N315 at 4 ug/ml incubated for 4 hrs by RNA-sequencing analysis; assay type: functional; conditions: dose 4.0 µg/ml

## C=CCc1cc(-c2ccc(OCCC[N+](C)(C)CC(=O)NCCCC)c(CC=C)c2)c2oc(-c3c(Cl)cccc3Cl)nc2c1.[Br-]
[1]
  Activity: Non-Toxic
[2]
  Activity: Non-Toxic
Staphylococcus aureus [3]
  MIC: 4 µg/mL
Cell membrane [4]
  Activity: Dose-Dependent Effect
L02
  Activity: Dose-Dependent Effect
[5]
  Activity: Non-Toxic
[6]
  Activity: Non-Toxic
[7]
  Activity: Toxic
Cell membrane [8]
  Activity: Dose-Dependent Effect
Staphylococcus aureus [9]
  Activity: Active
